The values that follow come from US7906520B2, “Methods for treating pain” (The General Hospital Corporation, priority 2003, dated 2011).

For series [1], the system named is GTP cyclohydrolase I. The conditions noted are these: cited from earlier work; for Ki: read-out: Ki, noncompetitive inhibitor of GTP cyclohydrolase I; for potency as GTP cyclohydrolase I inhibitor relative to oxidized pterins: more potent than oxidized pterins.
Series [2] relates to sepiapterin reductase. The following applies: cited from earlier work.
For series [3] the following is noted: systemically administered, low doses; cited from earlier work.
Series [4] deals with SNI model of neuropathic pain. Kind of series: Spared nerve injury (SNI) model of neuropathic pain, von Frey and acetone tests. Format: in vivo. How it is done: FIGS. 8A-8D represent a series of graphs showing the effect of DAHP on nociceptive behavior in the SNI model of neuropathic pain. Figures on the left show the threshold to mechanical stimuli applied with von Frey hairs (von Frey threshold). Figures on the right show the duration of paw licking, shaking and lifting following acetone application to the paw as a measure for cold allodynia. In FIG. 8A, rats were treated with DAHP (180 mg/kg/d i.p.) for three days starting three days after surgery (early treatment). Nociceptive behavior was assessed daily before and after drug injection. In FIG. 8B, the treatment period was extended to five days (180 mg/kg/d i.p.) starting three days after surgery and pain behavior was assessed daily before and after drug injection and once every second day for an additional week after stopping the daily drug injections. In FIG. 8C, treatment with DAHP (180 mg/kg/d i.p. for 5 days) was started 17 days after surgery i.e. in the chronic phase without any treatment in the early phase. Nociceptive behavior was assessed once daily 3 h after drug injection. In FIG. 8D, animals received a continuous spinal infusion of DAHP (6 mg/kg/d) for 14 days. The infusion was started directly after surgery. Nociceptive behavior was assessed once daily.
FIGS. 16A-16D show the effects of systemic (16A) and intrathecal (16B) treatment with methotrexate (MTX) on the nociceptive behavior in the SNI model of neuropathic pain. […] In FIG. 16A MTX (0.2 mg/kg/d) was injected i.p. once daily starting 5 days after SNI surgery. Nociceptive behavior was assessed once daily three hours after drug injection. In FIG. 16B, MTX was administered as continuous intrathecal infusion (0.1 mg/kg/d for 14 days) starting right after SNI surgery. Nociceptive behavior was assessed once daily. FIGS. 16C and 16D show the body weight gain of animals during systemic (16C) and intrathecal (16D) MTX treatment. Determination of the weight gain was used to assess general well-being and potential toxic effects of MTX.
In this graph, closed triangles represent vehicle, i.p.; open triangles represent DAHP at 90 mg/kg/day, i.p.; open squares represent DAHP at 180 mg/kg/day, i.p.; and open circles represent DAHP at 270 mg/kg/day, i.p.
All procedures were performed in accordance with Massachusetts General Hospital animal care regulations. Adult male Sprague Dawley rats (200-300 g) were anesthetized with halothane. For the sciatic nerve transection (axotomy), the left sciatic nerve was exposed at the mid thigh level, ligated with 3/0 silk, and sectioned distally. The wound was sutured in two layers, and the animals were allowed to recover. For SNI the tibial and peroneal branch of the sciatic nerve were ligated and transected whereas the sural nerve was spared. For CCI, the sciatic nerve was loosely ligated with dexon 4/0 (three ligatures) and for the spinal ligation model the L5 spinal segmental nerve was ligated.

In series [5] the test system is SNI model. The experiment in a line: SNI model, L-NAME versus DAHP. In kind it is in vivo. How it is done:
In this figure, closed circles represent nNOS knockout mice with DAHP; open circles, nNOS knock out mice with vehicle; closed triangles, wild type mice with DAHP; and open triangles, wild type mice with vehicle. […] In this figure, closed triangles represent L-NAME administration; open circles, L-NAME+DAHP administration; closed circles, DAHP administration; and open triangles, vehicle administration. L-NAME was administered at 25 mg/kg, i.p., single dose, and DAHP was administered at 120 mg/kg, i.p., single dose. The antinociceptive efficacy of this high L-NAME dose is weaker (about 50%) than that of a moderate dose of DAHP.

Series [6] concerns CFA-induced paw inflammation. Kind of series: CFA model of inflammatory pain: Hargreaves test and paw weight. The following applies: NAS 50 mg/kg i.p. In kind it is in vivo, rat. How it is done: FIGS. 11A-11E are a series of graphs showing the effect of DHAP on thermal hyperalgesia in the CFA model which is a model for inflammatory pain. […] On the left end of the graph, two doses of DAHP (180 mg/kg i.p.) were injected, the first 30 minutes before injection of CFA into the hindpaw, the second 4 hours after CFA (indicated with arrows D1 and D2). On the right, a single dose (dotted arrow D1) of DAHP (180 mg/kg i.p.) was injected 24 h after induction of paw inflammation without any treatment during the first 24 h following CFA injection. […] In FIGS. 11C-11D, the effects of systemically administered DAHP (180 mg/kg i.p. single dose; 11C) are compared with the effects of a single intrathecal dose (1 mg/kg i.t.; 11D) which was administered via a lumbar spinal catheter. In both cases, treatment was started 24 hours after CFA injection into the hindpaw. Because of slightly different baseline levels (11C compared with 11D) effects of DAHP after i.p. and i.t. treatment are additionally presented as percentage change of paw withdrawal latency (FIG. 11E) to allow for a direct comparison of both routes of administration.
FIG. 12 is a bar graph showing the increase of the paw weight of the inflamed paw compared with the contralateral paw. Paw weight was determined 48 hours following CFA injection. The increase of the paw weight is a measure for the inflammatory paw edema and therefore allows assessment of paw inflammation.
FIGS. 15A and 15B show the effect of the sepiapterin reductase inhibitor, N-acetyl-serotonin (NAS) on thermal hyperalgesia in the CFA model. The paw withdrawal latency (PWL) to radiant heat (Hargreaves test) is a measure for the heat sensitivity. NAS treatment (single dose of 50 mg/kg i.p.) was started 24 hours after CFA injection into the hindpaw. Data are presented as percentage change of the PWL compared with the PWL of the non-inflamed contralateral paw. […] Paw weight was determined 48 hours following CFA injection. The increase of the paw weight is a measure for the inflammatory paw edema.
Hypersensitivity was induced using the CFA model of paw inflammation. In these experiments, BH4 was injected at time “zero” after measurement of baseline paw withdrawal latency.

With `Nc1nc2nc[nH]c2c(=O)[nH]1` [guanine], the “GTPCH inhibitory potency relative to DAHP” value in series [1] (higher potency than DAHP) was “approximately 10 fold”.
As to `O=C(CCl)NCCc1c[nH]c2ccc(O)cc12` [N-Chloroacetylserotonin], in series [2], the “potency as sepiapterin reductase inhibitor relative to NAS” value was “increased potency”.
For `CN(Cc1cnc2nc(N)nc(N)c2n1)c1ccc(C(=O)N[C@@H](CCC(=O)O)C(=O)O)cc1` [methotrexate], the “blood brain barrier penetration” value in series [3] is listed as “does not penetrate the blood brain barrier”. Also, the “pain in response to mechanical and cold allodynia” value in series [4] (MTX 0.2 mg/kg/d i.p. or 0.1 mg/kg/day continuous lumbar spinal delivery) was “reduction in pain”. Also, the “acute toxicity (body weight change over time)” value in series [4] (MTX systemic or intrathecal) was “absence of detectable acute toxicity”.
In general, Ki refers to a dissociation constant, usually derived from enzyme kinetics or from competition with a known ligand. Take `C[C@H](O)[C@H](O)[C@H]1CNc2nc(N)[nH]c(=O)c2N1` [Tetrahydro-L-biopterin]: in series [1], the inhibitory constant (Ki) was 15.7 µM.
Turning to `O=C(CCl)NCCc1ccc(O)c(O)c1` [N-Chloroacetyldopamine], the “potency as sepiapterin reductase inhibitor relative to NAS” value in series [2] was “increased potency”.
Regarding `COCC(=O)NCCc1c[nH]c2ccc(O)cc12` [N-Methoxyacetylserotonin], the “potency as sepiapterin reductase inhibitor relative to NAS” value in series [2] is on record as “increased potency”.
In the case of `C[C@H](O)[C@H](O)[C@@H]1CNc2nc(N)[nH]c(=O)c2N1` [6S-BH4], the “effectiveness relative to BH4” value in series [1] (feedback inhibition of GTPCH) is “more than one order of magnitude less effective”.
`COC(=O)[C@@H](N)CCCNC(=N)N[N+](=O)[O-]` [L-NAME, N^G-Nitro-L-arginine-methyl ester]: the “effect of L-NAME co-injection on efficacy of DAHP” value in series [5] (L-NAME 25 mg/kg i.p. + DAHP 120 mg/kg i.p.) was “does not further increase the efficacy of DAHP”. For the same compound, the “antinociceptive efficacy relative to a moderate dose of DAHP” value in series [5] (L-NAME 25 mg/kg i.p. single dose, weaker than DAHP) is reported as “about 50%”.
In general, IC50 refers to the midpoint of a concentration-inhibition curve. As to `C[C@H](O)C(=O)C1=Nc2c(nc(N)[nH]c2=O)NC1` [L-Sepiapterin], the “potency as GTP cyclohydrolase I inhibitor relative to oxidized pterins” value in series [1] is 12 times. Further, in series [1] (read-out: IC50, GTP cyclohydrolase I inhibitor), the IC50 is 12.7 ± 1.8 µM.
`C[C@H](O)[C@H](O)C1=Nc2c(nc(N)[nH]c2=O)NC1` [7,8-dihydro-L-Biopterin]: in series [1], the “potency as GTP cyclohydrolase I inhibitor relative to oxidized pterins” value is reported as “approximately 12 times” and the Ki was 14.4 µM.
`CC(=O)NCCc1c[nH]c2ccc(O)cc12` [NAS, N-acetyl-serotonin]: the “CFA-induced inflammatory paw edema” value in series [6] was “no effect”. Also, the thermal hyperalgesia entry in series [6] (24 hours after CFA) was “reduction of thermal hyperalgesia”.
